Laboratory results: US20120016011A1, “RNA Interference Mediated Inhibition of Connective Tissue Growth Factor (CTGF) Gene Expression Using Short Interfering Nucleic Acid (siNA)” (Merck Sharp & Dohme Corp., priority 2009, published 2012)
[invAb] = inverted abasic unit; m = 2'-O-methyl; r = 2'-OH (RNA); f = 2'-fluoro

Tests used:
[1] = test system: α-SMA mRNA; experiment: Inhibition of α-SMA mRNA induction by TGF-β1 in HLF cells; format: cell-based, human; settings: for Inhibition of upregulation of α-SMA mRNA by TGF-β1: 10 nM siNA, FIG. 12
Protocol: A549 cells (ECACC, 86012804) were maintained in Dulbecco's Modified Eagle Medium (DMEM) containing 10% Fetal Calf Serum (FCS), 2 mM L-glutamine, 100 U/ml penicillin and 100 μg/ml streptomycin (all from GIBCO). Sub-confluent cultures (2.7×10^3 cells/cm^2) were seeded in collagen-coated multi-well plates (Becton Dickenson) and grown for three days. Cells were quiesced using the same medium containing 0.5% FCS, for 24 hours prior to stimulation with cytokines. Cells were incubated with 0-10 ng/ml TGF-(31 for the periods indicated. Normal Human Lung Fibroblasts (HLFs) were obtained from Lonza and maintained in Fibroblast Growth Medium supplemented with growth factors (Lonza #CC-3132); final serum concentration of medium was 2%. HLFs were treated with cytokines in serum-free medium. Normal Human Bronchial Epithelial cells (NHBEs, also obtained from Lonza) were maintained and transfected in Lonza BEBM with SingleQuots (Lonza #CC-3170). All growth factors from the kit were added, except retinoic acid. All cultures were maintained at 37° C. in a humidified incubator with 5% CO2 atmosphere.
Cells were harvested at time points appropriate for the experiment. Supernatants were removed and stored at −70° C. until analysis. Cells were washed using Dulbecco's Phosphate Buffered Saline (DPBS, GIBCO), prior to lysis. RNA lysates for Taqman analysis were produced using Promega RNA lysis buffer. All lysates were stored at −70° C. until use.
Cells were seeded on 96-well tissue culture plates (A549s and NHBEs, collagen-coated plates at densities of 5×10^3 and 1.2×10^4 respectively; HLFs on flat-bottom tissue culture plates, at 1×10^4 cells per well) in 100 μl of growth medium. […] Knockdown is calculated compared to CTGF expression of cells transfected with the universal control siNA.
RNA was isolated using a Biomek 2000 robot and Promega SV 96 Total RNA Isolation kits. cDNA was synthesised using a High Capacity cDNA Reverse Transcription Kit (Applied Biosciences) on a 96-well thermal cycler. […] Plates were analysed using an ABI Taqman RT-PCR machine, and SDS 2.2 Automation Controller software. […]

[2] = test system: collagen secretion (PICP) by HLF cells; experiment: Pro-collagen Type I C-terminal Pro-peptide (PICP) MSD assay, collagen secretion by HLF cells; format: cell-based, human; settings: TGF-β1 treated, vs universal control siNA, FIG. 13
Protocol: A Pro-collagen Type I C-terminal Pro-peptide (PICP) MSD assay was done on HLF cells transfected with siNAs and treated with TGF-β1. Supernatant from the HLF cells transfected with siNAs and treated with TGF-β1, was removed 72 hours after transfection and 48 hours after treatment. Plates and reagents (except antibodies) were purchased from Meso Scale Discovery. High bind, small spot 96 well MSD plates were spotted with 20 ng/well of the capture antibody (pro-collagen type I C-terminal pro-peptide, human PICP, Caltag Medsystmes) using a TTP LabTech Mosquito. Plates were left to dry for 48 hours before use. The MSD assay was performed as outlined: Plates were blocked with 30 mg/ml Blocker A, sealed and then shook on a plate shaker for 1 hour at RT. Plates were washed 3× with MSD Tris wash buffer. 25 μl of the supernatants were added for 1 hour on a plate shaker, plates were washed as before. The detection antibody (Anti-pro-collagen type I C-terminal pro-peptide, human PICP, Caltag Medsystmes Ltd) was diluted to 800 ng/ml in 10 mg/ml blocker A solution. This antibody had previously been Sulfo-Tagged using Sulfo-Tag NHS Ester (MSD) according to manufacturer's instructions. 25 μl of the diluted sulfo-tagged detection antibody was added, and left as before on a plate shaker for 1 hour. […] 150 μl of 1× Read buffer T was added per well, and the plates read on the MSD sector reader. […]

Substance | Inhibition of upregulation of α-SMA mRNA by TGF-β1 [1] | α-SMA expression levels relative to untreated cells ([1]; 5 and 10 ng/ml TGF-β1) | Collagen secretion (PICP secretion) induced by TGF-β1 [2]
48042-DC: siNA duplex; sense SEQ ID NO: 49 B GAcAuuAAcucAuuAGAcu TTB; antisense SEQ ID NO: 50 AGUcuAAuGAGuuAAuGucUU (sense GACAUUAACUCAUUAGACUTT; antisense AGUCUAAUGAGUUAAUGUCUU; sense: DNA at AGT, 2'-fluoro at CU, [invAb] at 5' end, 3' end, backbone not given here; antisense: sugars from the 5' end rrrffmmfmmmffmmfmffmm, backbone not given here) | significantly inhibited the upregulation of α-SMA | comparable to untreated cells | returned the levels of PICP secretion to near basal levels
48048-DC: siNA duplex; sense SEQ ID NO: 61 B GAuAGcAucuuAuAcGAGu TTB; antisense SEQ ID NO: 62 ACUcGuAuAAGAuGcuAucUU (sense GAUAGCAUCUUAUACGAGUTT; antisense ACUCGUAUAAGAUGCUAUCUU; sense: DNA at AGT, 2'-fluoro at CU, [invAb] at 5' end, 3' end, backbone not given here; antisense: sugars from the 5' end rrrfmfmfmmmmfmffmffmm, backbone not given here) | consistent but not significant knockdown of α-SMA | – | returned the levels of PICP secretion to near basal levels
